Where a name gives a salt, the structure may show the parent alone. Read-outs that look alike come from different tables or passages of the source.
Experiments:
ASBT [1] = target: T1, ASBT (Homo sapiens, UniProt Q12908); assay: Transport inhibition in ASBT-HEK293 cells; type: cell-based; details: substrate inhibitors, 1 min after 5 min preincubation
T1 construct: The full-length open reading frames of NTCP, ASBT, and SOAT were cloned; expressed in transfected cells; host or cells: Flp-In T-REX HEK293 (ASBT-HEK293), tetracycline-induced
T1 sequence (Q12908 1-348): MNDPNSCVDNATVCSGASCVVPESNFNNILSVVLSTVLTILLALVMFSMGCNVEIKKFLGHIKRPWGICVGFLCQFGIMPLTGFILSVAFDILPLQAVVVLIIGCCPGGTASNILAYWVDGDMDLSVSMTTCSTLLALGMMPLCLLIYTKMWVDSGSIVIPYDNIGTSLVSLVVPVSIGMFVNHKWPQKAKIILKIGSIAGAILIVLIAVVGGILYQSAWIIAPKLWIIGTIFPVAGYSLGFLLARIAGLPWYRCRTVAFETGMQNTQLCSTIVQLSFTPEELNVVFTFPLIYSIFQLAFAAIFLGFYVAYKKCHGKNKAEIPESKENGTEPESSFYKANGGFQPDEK
Method: Cells were washed three times with PBS and were preincubated with the respective inhibitor in sodium transport buffer for 5 min at 37°C. Uptake was initiated by adding the respective radiolabeled substrate to the well and incubating for a fixed time as indicated in the figures at 37°C. Transport was terminated by removing the transport buffer and washing five-times with ice-cold PBS. Cell monolayers were lysed in 1 N NaOH with 0.1% SDS and the cell-associated radioactivity and protein content was determined as described above. For uptake inhibition with the myr-preS1 peptide the sodium transport buffer contained additionally MEM-amino acid solution (ThermoFisher) at 1:50 dilution.
All transport or inhibition graphs were generated with GraphPad Prism 6.0 (GraphPad). Determination of IC50 values was done by nonlinear regression analysis using the equation log (inhibitor) vs. response settings. If not stated otherwise in the legends all data represent means ± SD of at least triplicate determinations of representative experiments.
FIGURE 3 Inhibition of NTCP, ASBT, and SOAT with substrate inhibitors. Transport of [^3H]TC, [^3H]TLC, and [^3H]DHEAS was analyzed in NTCP-HEK293, ASBT-HEK293, and SOAT-HEK293 cells in the presence of the substrate inhibitors TC, TLC, and DHEAS at increasing concentrations ranging from 100 nM till 1000 µM. After 5 min of preincubation with the respective inhibitory compound, 200 nM [^3H]TLC, [^3H]TC or [^3H]DHEAS were added for additional 1 min and the cell lysates were analyzed by liquid scintillation counting. Unspecific uptake of HEK293-FlpIn cells was set to 0%. Carrier-specific uptake without inhibitor was set to 100%.
Transport of [^3H]TC, [^3H]TLC, and [^3H]DHEAS was analyzed in NTCP-HEK293, ASBT-HEK293, and SOAT-HEK293 cells in the presence of different supposed non-substrate triterpenoid inhibitors as indicated at increasing concentrations ranging from 100 nM till 1000 µM. After 5 min of preincubation with the respective inhibitory compound, 1 µM [^3H]TLC, [^3H]TC or [^3H]DHEAS were added for additional 10 min at 37°C and the cell lysates were analyzed by liquid scintillation counting. Experiments performed without inhibitor were set to 100%. Means of negative controls were subtracted to calculate net transport rates (expressed as percentage of control). Data represent means ± SD of quadruplicate determinations of representative experiments.

NTCP [2] = target: T2, NTCP (Homo sapiens, UniProt Q14973); assay: Transport inhibition in NTCP-HEK293 cells; details: substrate inhibitors, 1 min after 5 min preincubation
T2 sequence (Q14973 1-349): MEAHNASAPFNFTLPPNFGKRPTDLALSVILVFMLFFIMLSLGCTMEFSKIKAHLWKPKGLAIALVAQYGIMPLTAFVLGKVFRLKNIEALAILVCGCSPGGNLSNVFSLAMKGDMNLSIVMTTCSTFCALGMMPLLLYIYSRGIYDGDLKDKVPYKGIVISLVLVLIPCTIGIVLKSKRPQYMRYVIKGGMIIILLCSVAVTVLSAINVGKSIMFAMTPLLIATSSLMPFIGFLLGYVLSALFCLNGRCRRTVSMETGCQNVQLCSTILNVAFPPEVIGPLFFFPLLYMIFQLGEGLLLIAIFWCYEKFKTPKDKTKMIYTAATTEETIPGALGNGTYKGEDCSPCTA

NTCP [3] = target: T2, NTCP; assay: Binding of fluorescent myr-preS1-Al633 peptide to NTCP-HEK293 cells; parameters: The full-length open reading frames of NTCP, ASBT, and SOAT were cloned; expressed in transfected cells; host or cells: Flp-In T-REX HEK293 (NTCP-HEK293), tetracycline-induced
Method: NTCP-HEK293 cells were seeded into 24-well-dishes as described above. For every set of induced wells an equal number of not-induced wells were used as respective background controls. Cells were washed three times with PBS and then preincubated with sodium transport buffer supplemented with MEM-amino acid solution (ThermoFisher) at 1:50 dilution at 37°C for 5 min. The fluorescent myr-preS1-Al633 peptide was added with a final concentration of 10 nM and binding experiments were performed over 10 min at 37°C. […] For calculation of the NTCP-specific binding signal, the mean background signal from the not-induced cells was subtracted. Net binding rates in the absence of any inhibitor were set to 100%.
(B) Binding of the fluorescent myr-preS1-Al633 peptide was analyzed in NTCP-HEK293 cells in the presence of increasing concentrations of TC, DHEAS, or TLC. […] Fluorescence was quantified by a fluorescence reader and values are expressed as percentage of control.

ASBT [4] = target: T1, ASBT; assay: Transport kinetics (concentration-dependent uptake) in ASBT-HEK293 cells; type: cell-based; details: uptake via ASBT, 1 min, 37°C
Method: Uptake experiments were initiated by replacing the preincubation buffer by 500 μL transport buffer containing the radiolabeled test compound and were performed at 37°C. Transport was terminated by removing the transport buffer and washing five-times with ice-cold PBS. Cell monolayers were lysed in 1 N NaOH with 0.1% SDS and the cell-associated radioactivity was determined by liquid scintillation counting.
FIGURE 2 NTCP, ASBT, and SOAT transport kinetics. Concentration-dependent uptake was analyzed in NTCP-HEK293, ASBT-HEK293, and SOAT-HEK293 cells for the indicated substrates at increasing substrate concentrations. Stably transfected HEK293 cells were pretreated with 1 μg/ml tetracycline to induce carrier expression. HEK293-FlpIn cells were used as control. Uptake was analyzed for 1 min at 37°C. Afterward, the medium was removed and each cell monolayer was washed and processed to determine the protein content and cell-associated radioactivity. Specific uptake was calculated by subtracting non-specific uptake of the HEK293-FlpIn control cells (open squares) from uptake into carrier-overexpressing HEK293 cells (filled squares) and is shown by broken lines. The values represent means ± SD of duplicate experiments, each with triplicate determinations (n = 6).

HDV = details: NTCP expressing HepG2 hepatoma cells, trans-inhibitory effect; ref Lowjaga et al., 2021; cited from earlier work
[5] = NTCP IC50, substrate [3H]DHEAS, 200 nM [3H]DHEAS
[6] = NTCP IC50, substrate [3H]TC, 200 nM [3H]TC
[7] = NTCP IC50, substrate [3H]TLC, 200 nM [3H]TLC

Q: With `C[C@]12CC[C@H](OS(=O)(=O)O)CC1=CC[C@@H]1[C@@H]2CC[C@]2(C)C(=O)CC[C@@H]12` [DHEAS, Dehydroepiandrosterone sulfate] as the compound, how does the IC50 (ASBT [1]; ASBT IC50, substrate [3H]TC, 200 nM [3H]TC) read?
A: The IC50 was 453 µM.

Q: What about the IC50 (ASBT [1]; ASBT IC50, substrate [3H]TLC, 200 nM [3H]TLC) of the same compound?
A: The IC50 was greater than 1000 µM.

Q: What about the IC50 (NTCP [2]; [5]) of the same compound?
A: The IC50 was 3.4 µM.

Q: What about the IC50 (NTCP [2]; [6]) of the same compound?
A: The IC50 was 21.5 µM.

Q: What about the IC50 (NTCP [2]; [7]) of the same compound?
A: Its IC50 is 432 µM.

Q: And the IC50 (NTCP [3])?
A: Its IC50 is 52 µM.

Q: Which results are given for `C[C@H](CCC(=O)NCCS(=O)(=O)O)[C@H]1CC[C@H]2[C@@H]3[C@H](O)C[C@@H]4C[C@H](O)CC[C@]4(C)[C@H]3C[C@H](O)[C@]12C` [Taurocholic acid]?
A: Apparent K m (ASBT [4]): 14.7 ± 1.5 µM; V max (ASBT [4]): 1821 ± 75.1 pmol/mg protein/min

Q: Which “Apparent K m” value (ASBT [4]) does the source give for `C[C@H](CCC(=O)NCCS(=O)(=O)O)[C@H]1CC[C@H]2[C@@H]3CC[C@@H]4C[C@H](O)CC[C@]4(C)[C@H]3CC[C@]12C` [Taurolithocholic acid] here?
A: Its value is 5.9 ± 1.8 µM.

Q: And the V max (ASBT [4])?
A: The V max was 1585 ± 99.7 pmol/mg protein/min.

Q: And the IC50 (ASBT [1]; 200 nM [3H]TC, read-out: ASBT IC50, substrate [3H]TC)?
A: Its IC50 is 1.9 µM.

Q: And the IC50 (ASBT [1]; 200 nM [3H]TLC, read-out: ASBT IC50, substrate [3H]TLC)?
A: Its IC50 is 4 µM.

Q: What about the “in vitro HDV infection” value (HDV) of the same compound?
A: The value was “inhibited in vitro HDV infection”.

Q: What about the IC50 (NTCP [2]; [5]) of the same compound?
A: The IC50 was 1.8 µM.

Q: And the IC50 (NTCP [2]; [6])?
A: The IC50 was 1.7 µM.

Q: And the IC50 (NTCP [2]; [7])?
A: Its IC50 is 1.4 µM.

Q: And the IC50 (NTCP [3]; 10 nM myr-preS1-Al633, 10 min, 37°C, NTCP-HEK293, read-out: IC50 for inhibition of myr-preS1 peptide binding to NTCP)?
A: The IC50 was 4.3 µM.
